In a melting point compilation (Tetko et al.) one finds melting point data, which are given here for 82 compounds.

Broadly, the melting point is the temperature of the solid-liquid transition.

The compound `CCCCCCCCCCCCCCCC(=O)Oc1ccc([N+](=O)[O-])cc1` had a melting point of 66 °C.
With `C=Cc1ccc2c(c1)OCCOCCOCCOCCOCCO2`, the melting point was in the range of 57 to 60 °C.
As for `O=C(NC(CSSCC(NC(=O)OCc1ccccc1)C(=O)O)C(=O)O)OCc1ccccc1` (configuration not stated), the figure is 84 °C; as for `Cc1ccc(CC=O)cc1`, 40 °C.
Compound `OCc1ccc2nonc2c1` showed a melting point of 66 to 67 °C.
`COc1ccc(C2CCCCC2)cc1N` had a melting point of 66 to 68 °C.
In turn, `O=C(O)C1CCCN1` (configuration not stated) came in with a melting point of 228 to 233 °C.
Regarding `O=C(O)c1cccc2c1OCC2`, the melting point is 170 to 171 °C.
As for `CCCCCCCCCCCCCC(=O)Nc1ccccc1`, the figure is 82 to 87 °C; as for `O=C(Cc1ccccc1)OC1Cc2ccccc21` (configuration not stated), 42 °C.
`NCCCOCCCCOCCCN` had a melting point of 4.5 °C.
Then `Cc1cc(Sc2cc(C)c(O)c(C(C)(C)C)c2)cc(C(C)(C)C)c1O`, with 126 °C; and `NNC(=O)c1cnn(-c2ccc(Cl)cc2)c1C(F)(F)F`, with 179 to 181 °C; and `O=C(ON=C(c1cc2ccccc2o1)c1cc2ccccc2o1)c1ccccc1`, with 154 to 155 °C.
As for `O=[N+]([O-])C1CCCCC1`, the figure is -34 °C; as for `N#Cc1ccc(Br)cn1`, 126 °C.
`OCCC(F)(F)C(F)(F)C(F)(F)C(F)(F)C(F)(F)C(F)(F)C(F)(F)C(F)(F)C(F)(F)C(F)(F)F` registered a melting point of 92.7 °C.
As for `CCNC(=O)C1CC(C)CCC1C(C)C` (configuration not stated), the figure is 88 °C; as for `c1ccc(-c2ccccc2-c2ccccc2-c2ccccc2)cc1`, 118 °C; as for `COc1ccccc1F`, -39 °C.
Then `Nc1c[nH]c(=O)[nH]c1=O`, with 300 °C.
As to `CCC(Oc1c(I)cc(I)cc1I)C(=O)O` (configuration not stated), the melting point worked out at 124 °C.
`c1nnn[nH]1` came in with a melting point of 157 °C.
As for `Cc1cc(C)c(C(N)=O)c(N)n1`, the figure is 172 to 174 °C; as for `CCCC(C(N)=O)n1nc2ccccc2n1` (configuration not stated), 126 °C; as for `O=CNC1CC=CCC(NC=O)CC=CC1` (configuration not stated), 289 to 290 °C.
Regarding `O=C1NC(=O)C2(CCCCC2)N1`, the melting point lay within 218 to 220 °C.
As for `c1cc2ccc1CCc1ccc(cc1)CC2`, the figure is 285 to 288 °C.
Then `O=[N+]([O-])c1cnccc1O`, with 271 to 273 °C; and `CCOC(=O)c1cc2cc(OC)ccc2o1`, with 59 to 61 °C.
Then `Clc1nc(Cl)c2nc[nH]c2n1`, with 184 to 186 °C; and `Clc1ccc(-c2csc3nc4ccccc4n23)cc1`, with 200 to 203 °C.
On to `CCCCCCCCCCCCCCCCCCCC(=O)OC`, for which the melting point worked out at 54.5 °C.
Consider `CC(=O)OC1CCC2(C)C(=CCC3C2CCC2(C)C(C(C)=O)CCC32)C1` (configuration not stated), for which the melting point lay within 149 to 152 °C.
Compound `CC(=O)Nc1cccc2c1ccc1nc(-c3ccccc3)c(-c3ccccc3)nc12` registered a melting point of 249 °C.
As for `Cc1cc(C(C)(C)c2ccc(O)c(C)c2)ccc1O`, the figure is 139 °C; as for `Fc1cc(Cl)cc(CBr)c1`, 25 to 30 °C; as for `N#Cc1ccc(S(N)(=O)=O)cc1`, 170 °C.
As for `O=C(O)CN(CCO)CCN(CC(=O)O)CC(=O)O`, the figure is 212 to 214 °C; as for `Cc1cc(O)c(C(c2ccc([N+](=O)[O-])cc2)c2c(O)cc(C)oc2=O)c(=O)o1`, 238 to 240 °C; as for `CC(C)COC(N)=O`, 67 °C.
As for `COc1cc(-c2nnc3sc(-c4cccnc4)nn23)cc(OC)c1OC`, the figure is 175 °C.
In turn, `Cc1cc(C2(c3ccc(O)c(C)c3)OS(=O)(=O)c3ccccc32)ccc1O` displayed a melting point of 290 °C.
The compound `C1=CCCC=C1` returned a melting point of -89 °C.
Then `CCOC(=O)C(CSC(=O)C(C)(C)Br)NC(C)=O` (configuration not stated), with greater than 20 °C; and `Nc1cccc2cc[nH]c12`, with 91 °C; and `Nc1cc(C(=O)O)cc(C(=O)O)c1`, with 360 °C.
In the case of `Cc1cc(C)oc(=O)c1`, the melting point came out at 51.5 °C.
As for `C=C(C)C1CCC(C)=CC1c1c(O)cc(CCCCC)cc1O` (configuration not stated), the figure is 67 °C; as for `CCCOC(N)=O`, 60 °C.
Then `COc1ccc(COC(=O)NN)cc1`, with 76 °C; and `CCOC(=O)c1ccc([N+](=O)[O-])cc1NC(=O)c1ccccc1`, with 179 °C; and `FCC(F)(F)F`, with -101 °C.
As for `O=c1[nH][nH]c(=O)[nH]1`, the figure is 250 °C; as for `CC(C(=O)O)C1CCC2C3CCC4CC(=O)CCC4(C)C3CCC12C` (configuration not stated), 253 °C.
`CSc1nn(-c2ccccc2)cc1C#N`: the melting point was in the range of 106 to 108 °C.
Then `Nc1c([N+](=O)[O-])cc(F)c(F)c1F`, with 46 to 48 °C; and `COC(=O)NN=Cc1c[n+]([O-])c2ccccc2[n+]1[O-]`, with 239 °C.
Then `CC(=O)c1nn2c(nc(=O)c3ccccc32)s1`, with 199 °C.
Then `Brc1ccc(-c2csnn2)cc1`, with 154 to 156 °C.
Take `N#Cc1c(N)sc2c1CCCC2`: the melting point turned out to be 142 °C.
Then `Oc1c(CN2CCCCC2)ccc2ccccc12`, with 134 to 136 °C; and `COc1ccc(Br)cc1C=CC(=O)O`, with 224 to 229 °C.
Consider `Cn1cc(I)cn1`, for which the melting point lay in the range of 61 to 67 °C.
Then `Cc1noc(-c2ccccc2C=O)n1`, with 66 to 68 °C; and `Nc1cccc(CN2CCCC2)c1`, with 72 to 74 °C.
For `O=[N+]([O-])c1cc(C(F)(F)F)ccc1CCl`, the melting point is 44 °C.
Take `CC(C)C1=C(O)C(=O)C2=C(C1=O)[C@@H]1O[C@@H]1[C@H]1C(C)(C)CCC[C@]21C`: the melting point came out at 202 °C.
For `N#CCc1ccc(OS(=O)(=O)c2ccc(Cl)cc2)cc1`, the melting point lay in the range of 95 to 97 °C.
As for `O=Cc1ccc(Cn2cncn2)cc1`, the figure is 73 to 75 °C.
As for `COc1ccc2ccc(=O)oc2c1CC=C(C)C`, the figure is 83.5 °C; as for `CCOC(=O)c1cnn(-c2ccc(F)cc2)c1N`, 153 to 154 °C.
The compound `O=C(O)c1ccnc(Cl)c1` gave a melting point of 231 °C.
As for `CSc1nc(NS(=O)(=O)c2ccc(C)cc2)c(C#N)c(-c2ccc(Cl)cc2)c1Br`, the figure is 218 °C; as for `O=C(O)CCc1ccco1`, 58 °C.
`N#CCc1coc2ccccc12`: the melting point fell in the range of 39 to 41 °C.
`N#Cc1cc(I)ccc1F` registered a melting point of 72 °C.
The compound `COc1ccccc1OCC(=O)O` gave a melting point of 120 °C.
In the case of `OOC1CCCc2ccccc21` (configuration not stated), the melting point is 56 °C.
`CCC(CO)(CO)[N+](=O)[O-]` returned a melting point of 57.5 °C.
Regarding `CC(=O)c1c(-c2cccc(Cl)c2Cl)noc1C`, the melting point lay in the range of 62 to 64 °C.
As for `CCCSC`, the figure is -113 °C.
